Data set [1] addresses T1, Transcriptional activator protein LasR (Pseudomonas aeruginosa (strain ATCC 15692 / PAO1 / 1C / PRS 101 / LMG12228)) (UniProt P25084).
T1 sequence (whole entry): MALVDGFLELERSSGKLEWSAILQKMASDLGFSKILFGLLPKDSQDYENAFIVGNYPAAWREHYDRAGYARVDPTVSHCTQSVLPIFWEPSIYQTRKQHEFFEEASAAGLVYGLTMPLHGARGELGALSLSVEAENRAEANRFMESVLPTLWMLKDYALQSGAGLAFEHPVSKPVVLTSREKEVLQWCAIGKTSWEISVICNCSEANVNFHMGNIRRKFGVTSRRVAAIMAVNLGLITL
In words: Antagonist activity at LasR in Pseudomonas aeruginosa PAO1 assessed as inhibition of biofilm formation at 0.3 to 333 uM after 20 hrs by crystal violet staining assay.

Data set [2] has as its target T1, Transcriptional activator protein LasR (Pseudomonas aeruginosa (strain ATCC 15692 / PAO1 / 1C / PRS 101 / LMG12228)). In words: Antagonist activity at LasR in Escherichia coli DH5a harboring reporter plasmid lasI-lacZ (pSC11) pJN105L plasmid assessed as inhibition of 3-oxo-C12-HSL induced protein activation by Miller assay method. Conditions: Escherichia coli DH5[alpha].

In data set [3] the test system is Pseudomonas aeruginosa. The data set can be described thus: Growth inhibition of lasI-rhlI double mutant Pseudomonas aeruginosa PAO-JP2 harboring lasI promoter coupled to the luxCDABE box measured at >100 uM after 5 hrs. The data set is classed as organism-based. Conditions: in vivo.
Data set [4] addresses T1, Transcriptional activator protein LasR (Pseudomonas aeruginosa (strain ATCC 15692 / PAO1 / 1C / PRS 101 / LMG12228)). Conditions: 200 uM.
Description: Inhibition of LasR activation in Pseudomonas aeruginosa PAO1 harboring lasI promoter coupled to the luxCDABE luminescence system assessed as reduction in luminescence measured at 200 uM after 5 hrs
Data set [5] shares this target. Conditions: JP2, 200 uM.
Description: Agonist activity at LasR in lasI-rhlI double mutant Pseudomonas aeruginosa JP2 harboring lasI promoter coupled to the luxCDABE box assessed as reduction in luminescence measured at 200 uM after 5 hrs
The target is the same in data set [6]. Conditions: 12 uM.
Description: Antagonist activity at LasR in Pseudomonas aeruginosa PAO1 assessed as inhibition of biofilm formation at 12 uM after 20 hrs by crystal violet staining assay
In data set [7] the target is T2, HTH-type quorum-sensing regulator RhlR (Pseudomonas aeruginosa (strain ATCC 15692 / PAO1 / 1C / PRS 101 / LMG12228)) (UniProt P54292).
T2 sequence (whole entry): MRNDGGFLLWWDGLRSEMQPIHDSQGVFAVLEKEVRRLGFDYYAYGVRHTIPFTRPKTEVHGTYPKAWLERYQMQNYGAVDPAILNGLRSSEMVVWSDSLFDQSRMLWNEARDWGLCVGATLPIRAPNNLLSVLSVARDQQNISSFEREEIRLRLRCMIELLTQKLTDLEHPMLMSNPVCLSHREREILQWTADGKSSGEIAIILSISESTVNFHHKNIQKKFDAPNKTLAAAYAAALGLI
In words: Antagonist activity at RhlR in lasI-rhlI double mutant Pseudomonas aeruginosa PAO-JP2 harboring lasI promoter coupled to the luxCDABE box assessed as reduction in C4-HSL induced protein measured at 25 to 200 uM after 5 hrs.

Data set [8] relates to Pseudomonas aeruginosa. In words: Antibacterial activity against Pseudomonas aeruginosa PAO1 assessed as inhibition of pyocyanin production at 100 uM after 20 hrs. The data set is classed as functional. Conditions: PAO1, 20 h.
Data set [9] concerns the target T1, Transcriptional activator protein LasR (Pseudomonas aeruginosa (strain ATCC 15692 / PAO1 / 1C / PRS 101 / LMG12228)). In words: Binding affinity to LasR in Pseudomonas aeruginosa PAO1 at 50 to 100 uM after 24 hrs by gel electrophoresis.
The target is the same in data set [10]. Conditions: JP2, 50 uM.
Description: Antagonist activity at LasR in lasI-rhlI double mutant Pseudomonas aeruginosa JP2 harboring lasI promoter coupled to the luxCDABE box assessed as reduction in C4-HSL induced luminescence measured at 50 uM after 5 hrs

Inhibition and Activity data for two compounds are collected here from ChEMBL document CHEMBL3217408 (Medchemcomm, 2013).

Active and inactive are the calls of the source. The calls are words filed in the database; no cut-off is given here.

As for `O=C1C=C(Br)/C(=C/Br)O1`, in [1], the inhibition (as a rule, the share of the control response that was lost under treatment) was “Active”.
As for `C[S+]([O-])CCCCN=C=S` (stereo not given) [SULFORAPHANE], in data set [2], the inhibition result is “Dose-dependent effect”. In addition, in the data set with Pseudomonas aeruginosa [3], the Activity result is “Non-toxic”. Moreover, the inhibition result in data set [4], in data set [6], in data set [7] and in data set [10] was “Active” in each case. The inhibition result in data set [5] was “inactive”. Moreover, the inhibition at 100 µM in the data set on Pseudomonas aeruginosa [8] is > 70%. Further, in data set [9], the result was Active.
